Molecular target: Free fatty acid receptor 1 (Homo sapiens, UniProt O14842)
Assay: Agonist activity at recombinant human GPR40 expressed in HEK293 cells assessed as increase in IP1 accumulation measured after 60 mins by HTRF assay

Sequence of Free fatty acid receptor 1 (O14842 whole entry): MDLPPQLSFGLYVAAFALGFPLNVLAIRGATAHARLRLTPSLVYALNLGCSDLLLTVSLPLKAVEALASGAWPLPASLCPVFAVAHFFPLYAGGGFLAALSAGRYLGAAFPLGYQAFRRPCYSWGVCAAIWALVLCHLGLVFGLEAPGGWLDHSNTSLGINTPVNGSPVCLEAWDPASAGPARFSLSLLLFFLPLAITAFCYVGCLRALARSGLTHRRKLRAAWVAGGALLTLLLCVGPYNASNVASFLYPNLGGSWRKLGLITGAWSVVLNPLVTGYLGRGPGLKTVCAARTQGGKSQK

COc1cc(-c2cnc(C3CCc4ccc([C@H](C5CC5)[C@H](C)C(=O)O)cc4O3)c(F)c2)c(F)cn1 (stereo partly specified)
EC50: 1.6 nM
